Data published in patent EP3878460A1, “GREEN TEA EXTRACT HAVING MODIFIED CONSTITUENT CONTENT AND COMPOSITION COMPRISING SAME” (priority 2018, dated 2020).

Tests used:
[1] = tested on: HepG2 human liver cancer cells; assay: Inhibition of lipid accumulation in hepatocytes (Oil Red O staining, stearic acid load); assay type: cell-based; conditions: 100 µM stearic acid, 48 hours, FIG. 8
Method: In order to investigate the effect of inhibiting lipid accumulation in hepatocytes of the green tea extract sample 1 and sample 2 of Example 1, the inhibition of fat accumulation was compared after culturing HepG2 human liver cancer cells and treating with each sample.
Specifically, hepatocytes (HepG2 cells) were seeded onto a 12-well plate (Falcon) with 1×10^6 cells per well and cultured in a 5% CO2 incubator at 37 °C for 24 hours. Then, after treating with each of the sample 1 and the sample 2 at 3, 10 or 30 µg/mL and 100 µM stearic acid conjugated with bovine serum albumin (BSA), the cells were cultured for 48 hours. After removing the medium and washing with PBS, the cells were fixed with 4% formaldehyde. After incubating with 100% propylene glycol for 5 minutes, the fat in the cells was stained by adding 500 µL of Oil Red O solution (Sigma) per well and culturing the cells for 2 hours. […] After transferring 200 µL of the isopropanol solution to a 96-well plate, the fat accumulated in the cells was quantified by measuring absorbance at 485 nm. The Oil Red O content (%) relative to a control group (0.1% (v/v) DMSO) was calculated by the following equation. Oil red O content (%) = (absorbanceofsample-treatedgroup−absorbanceofcontrolgroup) × 100 [formula] […]

[2] = tested on: hepatocytes (HepG2 cells); assay: Hepacytotoxicity, cell viability by MTS assay
Method: In order to investigate the hepatotoxicity of the high-temperature-processed green tea extract obtained in Example 1 (sample 2), hepatocytes (HepG2 cells) acquired from Korean Cell Line Bank were seeded onto a 96-well plate (Falcon) with 1×10^5 cells per well and cultured for 24 hours in a 5% CO2 incubator at 37 °C. Then, after treating with the sample 1 or sample 2 at 5, 10, 25, 50 or 100 µg/mL and culturing further for 24 hours, the medium was removed and cell viability was investigated using a CellTiter 96 AQueous One Solution cell proliferation assay kit (MTS, Promega Co. Madison, WI, USA). After treating the cells with 20 µL of a CellTiter 96 AQueous One Solution cell proliferation assay kit (MTS, Promega Co. Madison, WI, USA) solution added to 100 µL of RPMI1640 (Lonza), the number of live cells was quantified by measuring absorbance at 490 nm. The cell number or cell viability (%) was calculated by the following equation. Cell viability (%) = (absorbanceofsample-treatedgroup−absorbanceofreagentalone)/(absorbanceofnon-treatedgroup−absorbanceofreagentalone) × 100 [formula]
After treating the cells with 20 µL of a CellTiter 96 AQueous One Solution cell proliferation assay kit (MTS, Promega Co. Madison, WI, USA) solution added to 100 µL of RPMI1640 (Lonza), the number of live cells was quantified by measuring absorbance at 490 nm. The cell number or cell viability (%) was calculated as described in Test Example 1.

[3] = tested on: hepatocytes (HepG2 cells); assay type: cell-based, human
Method: The experimental condition was the same as in Test Example 1. After treating the cells with the sample 1 or sample 2, the levels of malate dehydrogenase 1 (MDH 1), α-glutathione S-transferase (GSTα) and sorbitol dehydrogenase (SDH) in the cell culture were measured 24 later.
In order to investigate the effect of the EGCG, GCG and EGC among the eight catechins on hepatocyte damage, release of enzymes from hepatocytes due to hepatocyte damage was analyzed using the MILLIPLEX Analyst software (Millipore). The experimental condition was the same as in Test Example 3. After treating the cells with EGCG, GCG or EGC, the levels of malate dehydrogenase 1 (MDH 1), α-glutathione S-transferase (GSTα) and sorbitol dehydrogenase (SDH) in the cell culture were measured 24 later.

[4] = HepG2 cells, 10, 50, 100 or 200 µM, 24 hours, calculated from cell viability

Compound: O=C(O[C@@H]1Cc2c(O)cc(O)cc2O[C@H]1c1cc(O)c(O)c(O)c1)c1cc(O)c(O)c(O)c1 [GCG, gallocatechin gallate]
- effect of inhibiting lipid accumulation in hepatocytes compared to EGCG at the same concentration [1]: remarkably excellent effect of inhibiting lipid accumulation in hepatocytes
- LD50 [2, 4]: 212.7 µM

Compound: Oc1cc(O)c2c(c1)O[C@H](c1ccc(O)c(O)c1)[C@H](O)C2 [EC, (-)epicatechin]
- LD50 ([2]; human, 24 h): 505.0 µM

Compound: O=C(O[C@@H]1Cc2c(O)cc(O)cc2O[C@@H]1c1cc(O)c(O)c(O)c1)c1cc(O)c(O)c(O)c1 [EGCG, epigallocatechin gallate]
- LD50 [2, 4]: 355.5 µM

Compound: Oc1cc(O)c2c(c1)O[C@H](c1cc(O)c(O)c(O)c1)[C@@H](O)C2 [GC, gallocatechin]
- LD50 [2, 4]: 236.2 µM

Compound: epicatechin 3-O-gallate [ECG]
- LD50 [2, 4]: 209.0 µM

Compound: Oc1cc(O)c2c(c1)O[C@H](c1cc(O)c(O)c(O)c1)[C@H](O)C2 [EGC, epigallocatechin]
- levels of the three enzymes (MDH 1, GSTα, SDH) in the cell culture [3]: highest
- hepacytotoxicity among the eight catechins [2]: highest hepacytotoxicity
- LD50 [2, 4]: 183.9 µM
